Test results: patent US9845330B2, “6-nitro-2,3-dihydroimidazo[2,1-b]oxazoles and a process for the preparation thereof” (priority 2013, dated 2017)
In brackets after ≈: the same amount, converted by molar mass. Like-named read-outs stand apart in the source and are kept apart here.

How the values were obtained:
M. tuberculosis H37Rv = assay: Combination studies, checkerboard method; format: cell-based, Mycobacterium tuberculosis; conditions: for MIC with IA25: in combination with IA25; for MIC with IIA3: in combination with IIA3
Experimental: The efficacy of compounds IA25 and IIA3 (conc range 4 μg/ml to 0.007 μg/ml) in combination with currently used anti-TB drugs such as rifampicin, isoniazid and ethambutol (each drug tested at conc range 4 μg/ml to […]), wherein the ratio of drugs was ranging between 0.1% to 50%, was determined in vitro using checkerboard method. The checkerboard procedure was performed based on the MIC values by the broth microdilution method. The checkerboard method was performed in 96 well U bottom microtitre plates. 100 microliters of 4× concentration of drug was added to first column of the plate. 50 microliters from first column was transferred to second column and was serially diluted in horizontal manner upto column 10 of the plate. Seven dilutions of 4× concentration of compound were prepared in eppendorfs and fifty microliters of each concentration was added vertically starting from eleventh column of row eight to row second of the plate. First row of the plate served as drug control. 100 microliters of 1:10 diluted of 1 Mc Farland inoculum was added to each well of the plate. Plates were then incubated at 37° C. for 14 days. MIC of drug alone and in presence of compound and vice versa was observed visually. […] The FIC index value for each concentration of two-drug combination was calculated and the minimum value was adopted.

[1] = test system: M. tuberculosis H37Rv (ATCC 27294); assay: MIC by broth dilution method, M. tuberculosis H37Rv; format: cell-based; conditions: Mycobacterium tuberculosis
[2] = Cytotoxicity assay (MTT) in macrophage J774 cells; format: cell-based; conditions: mouse, J774 macrophage cells; also called safety index
Summary of the method: (§1)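 J774 cells seeded at 3×10^4 cells/cm^2 in RPMI with FCS reduced to 5%, then exposed to compounds at 40 μg/ml for 24 hrs. MTT reduction read at 450 nm; percentage cytotoxicity calculated relative to untreated cells.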

[3] = test system: macrophage J774 cells line; assay: Cytotoxicity assay (MTT) in macrophage J774 cells; format: cell-based; conditions: J774 cells, 24 hrs, MTT
Summary of the method: as §1

[4] = In vivo pharmacokinetics, oral, mice; parameters: species or system Balb/c mice; Ka: unit not given here; conditions: 5 mg/kg oral, plasma
Experimental: Compounds were administered orally to mice (Balb/c mice) at a dose of 5 mg/kg as a suspension in 0.5% CMC and Tween 80. Samples were derived from plasma at different time points i.e. 0.16 h, 0.5 h, 1 h, 2 h, 4 h, 6 h, 8 h and 24 h, which were then analysed by LC-MS/MS to generate the required pharmacokinetic parameters.

[5] = FIC A, drug in combination with IA25
[6] = FIC A, drug in combination with IIA3
[7] = 504 h, broth dilution, 3 weeks, read-out: MIC M. tb H37Rv
[8] = read-out: MIC value, text summary: sensitive H37Rv as well as MDR and XDR strains of M. tuberculosis

SMILES | MIC [1, 7] | selectivity ratio at 24 h, 40 μg/ml [2] | Cytotoxicity [3] | MIC [1, 8] | also measured
CC[C@@H](CO)NCCN[C@@H](CC)CO [Ethambutol, reference compound] | – | – | – | – | FIC (MIC combination/MIC alone) (M. tuberculosis H37Rv; [5]): FIC A = 0.25; FIC (MIC combination/MIC alone) (M. tuberculosis H37Rv; [6]): FIC A = 0.5; MIC alone (M. tuberculosis H37Rv; checkerboard): 1 µg/mL; MIC with IA25 (M. tuberculosis H37Rv; checkerboard): 0.25 µg/mL; MIC with IIA3 (M. tuberculosis H37Rv; checkerboard): 0.5 µg/mL
C[C@]1(COc2cccc(-n3cc(COc4ccc(OC(F)(F)F)cc4)nn3)c2)Cn2cc([N+](=O)[O-])nc2O1 [IA33] | 0.12 µg/mL (≈ 0.225 µM) | > 10 | >40 µg/mL | – | CLB [4]: 1.2 mL/min/kg; Ka [4]: 0.478; Vdarea [4]: 0.25 L/kg; t1/2absorption [4]: 1.448 h; Cmax ([4]; Balb/c, mouse, po, 5 mg/kg): 595 nM; AUC ([4]; Balb/c, mouse): 3.95 µM·h; Tmax ([4]; Balb/c, mouse, read-out: Tmax): 2 h
C[C@]1(COc2ccc(-c3cc(COc4ccc(F)cc4F)on3)cc2)Cn2cc([N+](=O)[O-])nc2O1 [IC22, (R)-2-{4-[5-(2,4-difluorophenoxymethyl)isoxazol-3-yl]phenoxymethyl}-2,3-dihydro-2-methyl-6-nitroimidazo[2,1-b]oxazole] | 0.12 µg/mL (≈ 0.248 µM) | > 10 | >40 µg/mL | < 1 µg/mL | –
C[C@]1(COc2ccc(NC(=O)Nc3ccc(F)cc3)cc2)Cn2cc([N+](=O)[O-])nc2O1 [IIA1, (R)-1-(4-fluorophenyl)-3-{4-(2-methyl-6-nitro-2,3-dihydroimidazo[2,1-b]oxazol-2-yl)methoxyphenyl}urea] | 2 µg/mL (≈ 4.68 µM) | > 10 | >40 µg/mL | – | –
CCc1ccc(NC(=O)Nc2ccc(OC[C@@]3(C)Cn4cc([N+](=O)[O-])nc4O3)cc2)cc1 [IIA2, (R)-1-(4-ethylphenyl)-3-{4-(2-methyl-6-nitro-2,3-dihydroimidazo[2,1-b]oxazol-2-yl)methoxyphenyl}urea] | 0.5 µg/mL (≈ 1.14 µM) | > 10 | >40 µg/mL | < 1 µg/mL | –
C[C@]1(COc2ccc(NC(=O)Nc3ccc(C(F)(F)F)cc3)cc2)Cn2cc([N+](=O)[O-])nc2O1 [IIA3, (R)-1-(4-trifluoromethylphenyl)-3-{4-(2-methyl-6-nitro-2,3-dihydroimidazo[2,1-b]oxazol-2-yl)methoxyphenyl}urea] | 0.12 µg/mL (≈ 0.251 µM) | > 10 | >40 µg/mL | < 1 µg/mL | FIC (MIC combination/MIC alone) (M. tuberculosis H37Rv; FIC B, compound in combination with Ethambutol): FIC B = 0.25; FIC (MIC combination/MIC alone) (M. tuberculosis H37Rv; FIC B, compound in combination with INH): FIC B = 0.25; FIC (MIC combination/MIC alone) (M. tuberculosis H37Rv; FIC B, compound in combination with Rifampicin): FIC B = 0.25; MIC alone (M. tuberculosis H37Rv; checkerboard): 0.5 µg/mL; MIC with Ethambutol (M. tuberculosis H37Rv; checkerboard, in combination with Ethambutol): 0.12 µg/mL; MIC with INH (M. tuberculosis H37Rv; checkerboard, in combination with INH): 0.12 µg/mL; MIC with Rifampicin (M. tuberculosis H37Rv; checkerboard, in combination with Rifampicin): 0.12 µg/mL; FIC Index (FIC A + FIC B) (M. tuberculosis H37Rv; combination with Ethambutol): 0.75; FIC Index (FIC A + FIC B) (M. tuberculosis H37Rv; combination with INH): 0.75; FIC Index (FIC A + FIC B) (M. tuberculosis H37Rv; combination with Rifampicin): 0.5; Observations (M. tuberculosis H37Rv; combination with Rifampicin): synergistic effect
Cc1ccc(NC(=O)Nc2ccc(OC[C@@]3(C)Cn4cc([N+](=O)[O-])nc4O3)cc2)cc1 [IIA4, (R)-1-(4-methylphenyl)-3-{4-(2-methyl-6-nitro-2,3-dihydroimidazo[2,1-b]oxazol-2-yl)methoxyphenyl}urea] | 0.06 µg/mL (≈ 0.142 µM) | > 10 | >40 µg/mL | < 1 µg/mL | –
COc1ccc(NC(=O)Nc2ccc(OC[C@@]3(C)Cn4cc([N+](=O)[O-])nc4O3)cc2)cc1 [IIA5, (R)-1-(4-methoxyphenyl)-3-{4-(2-methyl-6-nitro-2,3-dihydroimidazo[2,1-b]oxazol-2-yl)methoxyphenyl}urea] | 1 µg/mL (≈ 2.28 µM) | > 10 | >40 µg/mL | – | –
C[C@]1(COc2ccc(NC(=O)Nc3ccc(OC(F)(F)F)cc3)cc2)Cn2cc([N+](=O)[O-])nc2O1 [IIA6, (R)-1-(4-trifluoromethoxyphenyl)-3-{4-(2-methyl-6-nitro-2,3-dihydroimidazo[2,1-b]oxazol-2-yl)methoxyphenyl}urea] | 0.5 µg/mL (≈ 1.01 µM) | > 10 | >40 µg/mL | < 1 µg/mL | –
C[C@]1(COc2ccc(S(=O)(=O)N3CCN(c4cccc(Cl)c4)CC3)cc2)Cn2cc([N+](=O)[O-])nc2O1 [IIC3, (R)-2-{4-[4-(3-chlorophenyl)piperazin-1-yl]sulfonylphenoxymethyl}-2,3-dihydro-2-methyl-6-nitroimidazo[2,1-b]oxazole] | 8 µg/mL (≈ 15 µM) | > 10 | >40 µg/mL | – | –
C[C@]1(COc2ccc(S(=O)(=O)N3CCN(c4ccc(OC(F)(F)F)cc4)CC3)cc2)Cn2cc([N+](=O)[O-])nc2O1 [IIC4, (R)-2-{4-[4-(4-trifluoromethoxyphenyl)piperazin-1-yl]sulfonylphenoxymethyl}-2,3-dihydro-2-methyl-6-nitroimidazo[2,1-b]oxazole] | 2 µg/mL (≈ 3.43 µM) | > 10 | >40 µg/mL | – | –
CCOC(=O)N1CCN(S(=O)(=O)c2ccc(OC[C@@]3(C)Cn4cc([N+](=O)[O-])nc4O3)cc2)CC1 [IIC5, (R)-ethyl-{4-[4-(2-methyl-6-nitro-2,3-dihydroimidazo[2,1-b]oxazol-2yl)methoxyphenyl]sulfonyl}piperazine-1-carboxylate] | 2 µg/mL (≈ 4.04 µM) | > 10 | >40 µg/mL | – | –
C[C@]1(COc2ccc(S(=O)(=O)N3CCN(C(=O)c4ccccc4)CC3)cc2)Cn2cc([N+](=O)[O-])nc2O1 [IIC6, (R)-{4-[4-(2-methyl-6-nitro-2,3-dihydroimidazo[2,1-b]oxazol-2yl)methoxyphenyl]sulfonyl}piperazine-1-yl(phenyl)methanone] | 2 µg/mL (≈ 3.79 µM) | > 10 | >40 µg/mL | – | –
C[C@]1(COc2ccc(S(=O)(=O)N3CCCCC3)cc2)Cn2cc([N+](=O)[O-])nc2O1 [IIC7, (R)-2-{4-(piperidin-1-ylsulfonyl)phenoxymethyl}-2,3-dihydro-2-methyl-6-nitroimidazo[2,1-b]oxazole] | 1 µg/mL (≈ 2.37 µM) | > 10 | >40 µg/mL | – | –
C[C@]1(COc2ccc(S(=O)(=O)N3CCC(c4ccccc4)CC3)cc2)Cn2cc([N+](=O)[O-])nc2O1 [IIC8, (R)-2-{4-[(4-phenylpiperidin-1-yl)sulfonyl]phenoxymethyl}-2,3-dihydro-2-methyl-6-nitroimidazo[2,1-b]oxazole] | 0.5 µg/mL (≈ 1 µM) | > 10 | >40 µg/mL | 0.5 µg/mL (≈ 1 µM) | –
C[C@]1(COc2ccc(S(=O)(=O)N3CCCC3)cc2)Cn2cc([N+](=O)[O-])nc2O1 [IIC9, (R)-2-{4-(pyrrolidin-1-ylsulfonyl)phenoxymethyl}-2,3-dihydro-2-methyl-6-nitroimidazo[2,1-b]oxazole] | 1 µg/mL (≈ 2.45 µM) | > 10 | >40 µg/mL | – | –
C[C@]1(COc2ccc(S(=O)(=O)N3CCOCC3)cc2)Cn2cc([N+](=O)[O-])nc2O1 [IIC10, (R)-2-{4-(morpholinsulfonyl)phenoxymethyl}-2,3-dihydro-2-methyl-6-nitroimidazo[2,1-b]oxazole] | 0.5 µg/mL (≈ 1.18 µM) | > 10 | >40 µg/mL | 0.5 µg/mL (≈ 1.18 µM) | –
NNC(=O)c1ccncc1 [INH, isoniazid, reference compound] | – | – | – | – | FIC (MIC combination/MIC alone) (M. tuberculosis H37Rv; [5]): FIC A = 0.25; FIC (MIC combination/MIC alone) (M. tuberculosis H37Rv; [6]): FIC A = 0.5; MIC alone (M. tuberculosis H37Rv; checkerboard): 0.25 µg/mL; MIC with IA25 (M. tuberculosis H37Rv; checkerboard): 0.06 µg/mL; MIC with IIA3 (M. tuberculosis H37Rv; checkerboard): 0.12 µg/mL
C[C@]1(COc2ccc(N3CCC(Oc4ccc(OC(F)(F)F)cc4)CC3)cc2)Cn2cc([N+](=O)[O-])nc2O1 [OPC-67683, reference compound] | – | – | – | – | CLB [4]: 0.0717 mL/min/kg; Cmax [4]: 668 nM; Tmax [4]: 2.00 h; Vdarea [4]: 0.76 L/kg; t1/2absorption [4]: 0.64 h; AUC ([4]; Balb/c, mouse): 9.32 µM·h
CO[C@H]1/C=C/O[C@@]2(C)Oc3c(C)c(O)c4c(O)c(c(/C=N/N5CCN(C)CC5)c(O)c4c3C2=O)NC(=O)/C(C)=C\C=C\[C@H](C)[C@H](O)[C@@H](C)[C@@H](O)[C@@H](C)[C@H](OC(C)=O)[C@@H]1C [Rifampicin, reference compound] | – | – | – | – | FIC (MIC combination/MIC alone) (M. tuberculosis H37Rv; [5]): FIC A = 0.25; FIC (MIC combination/MIC alone) (M. tuberculosis H37Rv; [6]): FIC A = 0.25; MIC alone (M. tuberculosis H37Rv; checkerboard): 0.12 µg/mL; MIC with IA25 (M. tuberculosis H37Rv; checkerboard): 0.03 µg/mL; MIC with IIA3 (M. tuberculosis H37Rv; checkerboard): 0.06 µg/mL
